Results from patent US20160228452A1, “TREATMENT OF METABOLIC DISEASES BY INHIBTION OF HTR2A OR HTR3” (Korea Advanced Institute of Science and Technology, priority 2014, published 2016).
Entries after “also recorded” stand apart in the source; their conditions may differ.

How the values were obtained:
[1] = target: T1, Htr2a (Mus musculus, UniProt P35363); assay: Glycerol release assay (lipolysis) in 3T3-L1 mature adipocytes; format: cell-based, murine; conditions: 24 h
Procedure: (§1) Murine 3T3-L1 cells (American Type Culture Collection) were cultured in DMEM supplemented with 10% fetal calf serum and 100 μg/mL P/S in a humidified atmosphere of 5% CO2 at 37° C. Two days after reaching confluence, the cells were induced to differentiate using medium supplemented with 0.5 mM IBMX, […] and 1 μM dexamethasone (day 0). After two days, the medium was replaced with DMEM supplemented with […] in 10% FBS and P/S (day 2), and it was changed every two days from days 4 to 8.
Lipolysis was measured as the rate of glycerol release using a free glycerol reagent (Sigma) following the manufacturer's protocol. Briefly, fully differentiated 3T3-L1 adipocytes in a 24-well plate were incubated with 5-HT or DOI in Krebs Ringer phosphate buffer (136 mM NaCl, 4.7 mM KCl, 10 mM NaPO4, 0.9 mM MgSO4, and 0.9 mM CaCl2) containing 4% fatty acid-free bovine serum albumin (Sigma) for 24 h. Isoproterenol was used as a positive control. After incubation, 10 μL of the cell culture supernatant was mixed with 0.8 mL of the free glycerol reagent, and the mixture was then incubated at 37° C. for 5 min. The absorbance of the sample was determined at 540 nm using a spectrophotometer (DU730 Life Science UV/Vis, Beckman Coulter, Indianapolis, Ind., USA). The amount of released glycerol was expressed relative to the cellular protein content.

[2] = system: SV cells from Tph1 FKO mice; assay: Ex vivo differentiation of SVF from BAT of Tph1 FKO mice, Ucp1 mRNA; format: cell-based; conditions: after 8 days of differentiation
Procedure: The stromal vascular fraction of epididymal, inguinal and BAT from 6- to 7-week-old mice was separated by collagenase digestion. Briefly, the adipose tissues were dissected, minced and digested with 0.2% collagenase A (Roche) in Hank's balanced salts solution (Sigma) for 45 min at 37° C. with constant shaking. Mature adipocytes and connective tissues were separated from the cell pellet by centrifugation at 800×g for 10 min at 4° C. The cell pellet was then suspended with RBC lysis buffer (Sigma) and filtered through a 40-μm mesh filter (BD bioscience). The pelleted stromal vascular cells (SVCs) were re-suspended in DMEM containing 10% FBS and seeded in 6-well plates for adipogenic differentiation.
(§2) Total RNA was extracted from the mouse tissues or cell lines using TRIzol reagent (Invitrogen) according to the manufacturer's protocol. After TURBO DNase (Invitrogen) treatment, 2 μg of total RNA was used to generate complementary DNA with Superscript III reverse transcriptase (Invitrogen). To analyze gene expression, real-time PCR was performed with a ViiA 7 Real-Time PCR system (Applied Biosystems) and the Power SYBR Green PCR master mix (Applied Biosystems). Relative quantification was based on the ddCt method, and ActB was used as an endogenous control (internal control).

[3] = target: T1, Htr2a; assay: Oil Red O staining of 3T3-L1 adipocytes; format: cell-based, murine; conditions: treatment during differentiation, absorbance at 520 nm
Procedure: Murine 3T3-L1 cells (American Type Culture Collection) were cultured in DMEM supplemented with 10% fetal calf serum and 100 μg/mL P/S in a humidified atmosphere of 5% CO2 at 37° C. Two days after reaching confluence, the cells were induced to differentiate using medium supplemented with 0.5 mM IBMX, 1 mg/mL insulin and 1 μM dexamethasone (day 0). After two days, the medium was replaced with DMEM supplemented with 1 mg/mL insulin in 10% FBS and P/S (day 2), and it was changed every two days from days 4 to 8. After full differentiation (day 8), 3T3-L1 adipocytes were fixed with 3.7% (w/v) formaldehyde in PBS for 15 min at room temperature and then washed three times with PBS. Then, the cells were stained with filtered Oil Red 0 solution (1.5 mg/mL 60% (v/v) isopropanol) for 30 min and then rinsed twice with distilled water. To quantify the amount of Oil Red 0 staining, the cells were eluted with 100% isopropranol for 10 min, and the absorbance densities of the extracts were measured at 520 nm using a VersaMax microplate reader (Molecular Devices, Sunnyvale, Calif., USA).

[4] = target: T1, Htr2a; assay: Real-time PCR of lipogenic genes in 3T3-L1 mature adipocytes; format: cell-based, murine
Procedure: as §1, §2

[5] = target: T2, Htr3 (Mus musculus, UniProt P23979); assay: cAMP assay (competitive ELISA) in immortalized brown adipocytes; format: cell-based
T2 construct: we explored the direct actions of Htr3 on BAT using immortalized brown adipocytes (IBAs); endogenous in cells; host or cells: differentiated immortalized brown adipocytes (IBAs)
T2 sequence (P23979 24-489): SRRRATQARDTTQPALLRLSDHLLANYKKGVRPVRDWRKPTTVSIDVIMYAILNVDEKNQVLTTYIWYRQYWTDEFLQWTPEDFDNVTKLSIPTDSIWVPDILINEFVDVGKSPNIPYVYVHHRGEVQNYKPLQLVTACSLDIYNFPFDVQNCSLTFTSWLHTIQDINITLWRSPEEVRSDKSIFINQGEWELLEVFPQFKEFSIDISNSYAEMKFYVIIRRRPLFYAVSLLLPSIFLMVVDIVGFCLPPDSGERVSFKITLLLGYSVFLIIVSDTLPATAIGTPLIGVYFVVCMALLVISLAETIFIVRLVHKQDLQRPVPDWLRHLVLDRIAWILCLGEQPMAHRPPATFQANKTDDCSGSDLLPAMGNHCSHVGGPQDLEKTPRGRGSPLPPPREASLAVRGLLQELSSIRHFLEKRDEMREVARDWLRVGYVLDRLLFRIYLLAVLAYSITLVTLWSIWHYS
T2 sequence (Q9JHJ5 22-437 partner): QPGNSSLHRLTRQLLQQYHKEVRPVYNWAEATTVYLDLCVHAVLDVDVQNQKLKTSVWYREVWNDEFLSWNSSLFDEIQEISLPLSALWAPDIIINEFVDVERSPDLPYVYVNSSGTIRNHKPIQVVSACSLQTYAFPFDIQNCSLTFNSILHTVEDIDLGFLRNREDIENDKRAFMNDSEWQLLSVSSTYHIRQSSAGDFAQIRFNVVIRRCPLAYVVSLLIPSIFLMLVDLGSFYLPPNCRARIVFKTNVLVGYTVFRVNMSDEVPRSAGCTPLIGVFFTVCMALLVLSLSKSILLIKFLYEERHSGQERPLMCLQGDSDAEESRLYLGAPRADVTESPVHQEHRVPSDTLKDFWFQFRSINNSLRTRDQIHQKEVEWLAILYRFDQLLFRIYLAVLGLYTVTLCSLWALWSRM
Procedure: (§3) IBAs were cultured in DMEM supplemented with 10% FBS and P/S in a humidified atmosphere of 5% CO2 at 37° C.^32. After reaching 95% confluence, the cells were induced to differentiate using DMEM with 10% FBS, 0.5 μg/mL insulin, 1 nM T3, 0.125 mM indomethacin, 2 μg/mL dexamethasone, 0.5 μM IBMX and P/S (day 0). After two days, the medium was replaced with DMEM supplemented with 10% FBS, 0.5 μg/mL insulin, 1 nM T3 and P/S (day 2), and it was changed every two days from days 4 to 8. We confirmed that these cell lines are free from Mycoplasma infection.
Differentiated IBAs were treated with 1 uM ondansetron or 100 nM m-CPBG or 1 uM CL-316243 for 15 min. 1 uM […] was used as a positive control. The cAMP competitive ELISA (Promega) was performed according to the manufacturer's instruction. Briefly, cAMP was extracted by adding 0.1 M HCl with 0.5% triton X-100 to the cells. After centrifugation at 600 g for 10 min, the supernatant was used for the determination of cAMP levels by competitive cAMP ELISA.

[6] = target: T2, Htr3; assay: Western blot for phosphorylation of PKA pathway components in IBAs; format: cell-based; conditions: IBAs pretreated with ondansetron, in the presence of β3-adrenergic receptor agonist
Procedure: as §3
Whole-cell lysates were extracted by incubating cells in RIPA buffer (25 mM Tris-HCl pH 7.6, 150 mM NaCl, 1% NP-40, 1% sodium deoxycholate, 0.1% SDS) plus protease inhibitors (Roche). Supernatant was collected following a brief centrifuge, and protein concentrations in the supernatant were determined using the BCA Protein Assay Kit (Thermo Scientific, Rockford, Ill., USA). The cell lysates were then mixed with equal volumes of 2× Laemmli buffer (4% SDS, 20% glycerol, 10% 2-mercaptoethanol, 0.01% bromophenol blue, and 120 mM Tris-HCl, pH 6.8) and boiled for 5 min at 95° C. Then, the protein samples were separated by SDS-PAGE and transferred to a PVDF membrane (Millipore). […]

[7] = target: T2, Htr3; assay: Real-time PCR of thermogenic genes in IBAs; format: cell-based; conditions: 2 h after ondansetron treatment
Procedure: as §3, §2

[8] = target: T2, Htr3; assay: OCR assay (Seahorse XF24) in IBAs; format: cell-based; conditions: fully differentiated IBAs pretreated 30 min, then β3 agonist CL-316243
Procedure: IBAs were cultured in DMEM supplemented with 10% FBS and P/S in a humidified atmosphere of 5% CO2 at 37° C.^32. After reaching 95% confluence, the cells were induced to differentiate using DMEM with 10% FBS, 0.5 μg/mL insulin, 1 nM T3, 0.125 mM indomethacin, 2 μg/mL dexamethasone, 0.5 μM IBMX and P/S (day 0). After two days, the medium was replaced with DMEM supplemented with 10% FBS, 0.5 μg/mL insulin, 1 nM T3 and P/S (day 2), and it was changed every two days from days 4 to 8. […] The OCRs of the cells were measured using a Seahorse XF analyzer (Seahorse Bioscience, Billerica, Mass., USA). After seeding IBAs on an XF-24 plate, the cells were incubated and differentiated using the protocol described above. Fully differentiated IBAs were pre-treated with PBS and ondansetron for 30 min. Then, the IBAs were treated with the β3 agonist (CL-316243) and the mitochondrial inhibitors oligomycin and rotenone/antimycin. The OCRs were calculated and recorded by a sensor cartridge and the Seahorse XF-24 software.

T1 sequence (P35363 whole entry): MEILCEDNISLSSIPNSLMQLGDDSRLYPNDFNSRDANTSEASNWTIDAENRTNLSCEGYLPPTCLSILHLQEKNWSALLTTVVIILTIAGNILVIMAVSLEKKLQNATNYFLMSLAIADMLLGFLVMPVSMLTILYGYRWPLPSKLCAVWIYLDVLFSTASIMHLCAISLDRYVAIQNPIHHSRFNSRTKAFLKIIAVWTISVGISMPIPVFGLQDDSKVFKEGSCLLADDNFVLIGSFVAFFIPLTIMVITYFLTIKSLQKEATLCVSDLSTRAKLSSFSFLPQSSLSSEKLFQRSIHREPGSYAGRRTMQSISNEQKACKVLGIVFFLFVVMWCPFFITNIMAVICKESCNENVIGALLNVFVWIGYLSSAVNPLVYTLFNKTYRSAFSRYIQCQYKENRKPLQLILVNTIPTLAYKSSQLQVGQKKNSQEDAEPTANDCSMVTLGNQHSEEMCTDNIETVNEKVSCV

NCCc1c[nH]c2ccc(O)cc12 [5-HT, 5-hydroxytryptamine]
glycerol release (lipolysis) [1]: suppressed lipolysis; also recorded: reduced the glycerol release | Ucp1 mRNA level [2]: abrogated; also recorded: suppressed

O=C(c1ccc(F)cc1)C1CCN(CCn2c(=O)[nH]c3ccccc3c2=O)CC1 [ketanserin, 3-{2-[4-(4-fluorobenzoyl)piperidin-1-yl]ethyl}quinazoline-2,4(1H,3H)-dione]
lipogenesis (optical density of Oil Red O extract) [3]: decreased lipogenesis; also recorded: reduced the optical density of the extract

COc1cc(CC(C)N)c(OC)cc1I (stereo not shown) [DOI, 2,5-dimethoxy-4-iodoamphetamine]
mRNA levels of lipogenic genes [4]: increased | glycerol release (lipolysis) [1]: suppressed lipolysis; also recorded: reduced the glycerol release

Cc1nccn1CC1CCc2c(c3ccccc3n2C)C1=O (racemic) [ondansetron, (RS)-9-methyl-3-[(2-methyl-1H-imidazol-1-yl)methyl]-2,3-dihydro-1H-carbazol-4(9H)-one]
cAMP level after β3AR stimulation ([5]; IBAs pretreated with 1 uM ondansetron, in the presence of β3-adrenergic receptor agonist CL 316243): increased cAMP levels | cAMP level in the absence of β3AR agonist ([5]; IBAs, 1 uM ondansetron or 100 nM m-CPBG, 15 min): did not affect cAMP levels | phosphorylation of HSL and PKA substrate (PKA pathway components) after β3AR stimulation [6]: increased phosphorylation | mRNA expression of thermogenic genes (Ucp1, Ppargc1a) [7]: increased | oxygen consumption rate (OCR) [8]: increased the OCR synergistically; also recorded: increased the oxygen consumption rate
